Assay results reported in patent publication US9394371B2, “Antibody-mediated disruption of quorum sensing in bacteria” (The Scripps Research Institute, priority 2007, dated 2016).

Test system: S. aureus RN4850
Assay type: cell-based

YSTCYFIM (SEQ ID NO: 123) (thiolactone cyclisation; listed as Staphylococcus aureus) [AIP-4, native S. aureus group IV autoinducing peptide, synthesized, reference compound]
α-hemolysin expression after adding synthetic AIP-4 to AP4-24H11: fully restored expression of α-hemolysin
